Laboratory results reported in publication PMC6940941, “Development of Thiazolidinedione-Based HDAC6 Inhibitors to Overcome Methamphetamine Addiction” (International Journal of Molecular Sciences, 2019).
pIC50: −log10 of the molar value.

Tests used:
HDAC1 = target: T1, HDAC1 (Homo sapiens, UniProt Q13547); experiment: Enzymatic HDAC fluorogenic assay (BPS Bioscience), HDAC1; format: biochemical; settings: 37 °C, 30 min incubation
T1 construct: purchased BPS Bioscience #50061
Description: (§4) Tubastain A (Portland, OR, USA) was purchased from TCI chemicals.
(§5) Enzymatic HDAC assay was performed following manufacturer’s protocol (BPS Bioscience). Briefly, HDAC assay buffer (35 µL) was mixed with 5 µL of BSA (1 mg/mL) and 5 µL of HDAC substrate (200 µM) in 96-well black plate. […] After incubation, 50 µL of undiluted 2 × HDAC developer was added to each well. After the mixture was incubated at RT for 15 min, fluorescence intensity was measured using a microplate reader at 360 nm excitation and 460 nm emission wavelengths.

HDAC6 [1] = target: T2, HDAC6 (Homo sapiens, UniProt Q9UBN7); experiment: Enzymatic HDAC fluorogenic assay (BPS Bioscience), HDAC6
T2 sequence (Q9UBN7 1-1215): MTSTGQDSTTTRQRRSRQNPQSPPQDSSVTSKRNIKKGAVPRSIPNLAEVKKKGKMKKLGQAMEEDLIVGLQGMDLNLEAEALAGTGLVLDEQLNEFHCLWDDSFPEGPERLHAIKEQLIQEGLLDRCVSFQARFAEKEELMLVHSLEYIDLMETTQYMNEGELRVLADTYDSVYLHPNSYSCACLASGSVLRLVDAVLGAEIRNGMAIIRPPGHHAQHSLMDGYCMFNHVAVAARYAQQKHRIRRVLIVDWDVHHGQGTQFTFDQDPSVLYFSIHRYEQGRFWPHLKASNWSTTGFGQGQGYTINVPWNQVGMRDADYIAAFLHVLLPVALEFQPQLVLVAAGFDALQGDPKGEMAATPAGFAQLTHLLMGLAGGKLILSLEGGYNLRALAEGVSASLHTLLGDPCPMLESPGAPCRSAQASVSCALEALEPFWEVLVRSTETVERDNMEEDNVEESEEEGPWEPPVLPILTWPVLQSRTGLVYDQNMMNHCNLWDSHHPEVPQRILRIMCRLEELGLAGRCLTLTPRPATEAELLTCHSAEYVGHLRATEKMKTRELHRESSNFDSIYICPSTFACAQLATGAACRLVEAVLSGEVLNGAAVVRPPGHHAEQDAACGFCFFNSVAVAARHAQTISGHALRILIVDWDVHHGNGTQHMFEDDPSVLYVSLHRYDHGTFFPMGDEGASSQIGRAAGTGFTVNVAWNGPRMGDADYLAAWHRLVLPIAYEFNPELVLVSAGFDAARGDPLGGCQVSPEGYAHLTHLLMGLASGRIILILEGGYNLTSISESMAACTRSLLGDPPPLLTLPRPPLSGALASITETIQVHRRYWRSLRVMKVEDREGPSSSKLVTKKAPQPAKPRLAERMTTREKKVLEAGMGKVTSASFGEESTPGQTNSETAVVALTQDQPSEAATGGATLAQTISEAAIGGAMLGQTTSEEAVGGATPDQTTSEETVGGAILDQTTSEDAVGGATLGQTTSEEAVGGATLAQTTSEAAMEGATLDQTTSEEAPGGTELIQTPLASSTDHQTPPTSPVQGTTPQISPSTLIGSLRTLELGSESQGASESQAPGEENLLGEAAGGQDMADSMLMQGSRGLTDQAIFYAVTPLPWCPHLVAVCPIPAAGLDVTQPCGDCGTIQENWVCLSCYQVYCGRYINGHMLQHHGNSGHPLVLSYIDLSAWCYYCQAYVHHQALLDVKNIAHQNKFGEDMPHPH
Description: as §4, §5

SH-SY5Y cells [2] = experiment: Assessment of cell morphology (phase contrast microscopy); format: cell-based, human
Description: SH-SY5Y cells (1 × 10^4 cells/well) were seeded in 6-well plate, and the cells were allowed to attach for 72 h. Culture medium was then changed to fresh medium containing METH (1 mM) for pretreat 4 h. After being preincubated for 4 h, add to compound 6b (5, 10, and 20 µM) for 24 h.
Figure 3 Effect of methamphetamine (METH) and compound 6b on the cell morphology and viability of SH-SY5Y cells. (A) Effect of methamphetamine on the cell viability of SH-SY5Y. Cells were incubated with the indicated concentrations of methamphetamine (METH) for 24 h and cell viability was measured using the colorimetric MTS assay. Data are presented as mean ± SD (n = 4). (B) Bright-field images of SH-SY5Y cells. […]

Ac-α-tubulin = experiment: Western blot of Ac-α-tubulin / α-tubulin in SH-SY5Y cells; format: cell-based, human
Description: (§1) We further explored the precise cellular mechanism of compound 6b. Histone H3 and α-tubulin are well-known substrates of HDAC1 and HDAC6 [23, 24]. Therefore, inhibition of HDAC1 and HDAC6 enzymes promotes the accumulation of acetylated Histone H3 and α-tubulin, respectively. Therefore, SH-SY5Y cells were incubated with compound 6b at various concentrations (0, 1, 5, 10, and 20 µM) for 24 h and the expression levels of α-tubulin, Ac-α-tubulin, Histone H3, and Ac-Histone H3 were analysed by Western blot. […] The administration of 6b at relatively low concentration of 1 µM caused the acetylation of α-tubulin via inhibition of HDAC6.
We next explored the underlying molecular and biochemical mechanisms behind the morphological changes. α-Tubulin is the basic protein that constitutes the cytoskeleton and the dynamic acetylation and deacetylation of α-tubulin play an important role in the morphology of cells. […]. […] We next investigated if compound 6b reversed the loss of the acetylation caused by methamphetamine. […].
(§2) The cells were washed and lysed in ice-cold lysis buffer (23 mM Tris-HCl pH 7.6, 130 mM NaCl, 1% NP-40, 1% sodium deoxycholate, 0.1% SDS) and 30 µg of lysate per lane was separated by SDS-PAGE, followed by transferring to a PVDF membrane (Bio rad, Hercules, USA). The membrane was blocked with 5% skim milk in TBST, and then incubated with primary antibody. After being treated with goat-anti rabbit secondary antibody (Santa Cruz, CA, USA) coupled horseradish peroxidase, proteins were visualized by ECL chemiluminescence according to the instructions of the manufacturer’s instruction (GE Healthcare, Chicago, IL, USA).
(§3) Figure 2 Effect of compound 6b on the cell viability of SH-SY5Y and the acetylation status of α-tubulin and Histone H3. (A) SH-SY5Y cells were treated with the indicated concentrations of compound 6b for 24 h and the cell viability was measured using the colorimetric MTS assay. Data are presented as mean ± SD (n = 4). (B) SH-SY5Y cells were incubated with the indicated concentrations of compound 6b or Tubastatin A (Tub) for 24 h and the expression levels of α-tubulin, Ac-α-tubulin, Histone H3, and Ac-Histone H3 were analysed by Western blot. Tubastatin A was employed as a positive control and β-actin was used as a loading control. The p value was obtained by Student t-test. * p < 0.01 as compared to vehicle.
. (A) SH-SY5Y cells were incubated with the indicated concentrations of methamphetamine (METH) for 24 h and the expression levels of Ac-α-tubulin and α-tubulin were analysed by Western blot. β-actin was used as a loading control. […]

Ac-Histone H3 = experiment: Western blot of Ac-Histone H3 / Histone H3 in SH-SY5Y cells; format: cell-based, human; settings: 24 h
Description: as §1, §2, §3

HDAC6 [3] = target: T2, HDAC6
Description: as §4, §5

SH-SY5Y cells [4] = experiment: Cell viability, colorimetric MTS assay; format: cell-based, human; settings: 24 h, up to 1 mM
Description: SH-SY5Y (1 × 10^3 cells/well) were seeded in 96-well plate, the medium volume was brought to 100 µL, and the cells were allowed to attach for 14 h. Various concentrations of compound 6b (1, 5, 10, 30, 50, 70, and 100 µM) and METH (0.1 and 1 mM) were then added to the wells. Cells were then incubated at 37 °C for 24 h. Cell viability was determined using the Promega Cell Titer 96 Aqueous One Solution cell proliferation assay. Absorbance at 490 nm was read on Tecan Infinite F200 Pro plate reader, and values were expressed as percent of absorbance from cells incubated in DMSO alone.
as §3, with “Tubastatin A was employed as a positive control and β-actin was used as a loading control. The p value was obtained by Student t-test. * p < 0.01 as compared to vehicle.” left out
Figure 3 Effect of methamphetamine (METH) and compound 6b on the cell morphology and viability of SH-SY5Y cells. […] Cells were incubated with the indicated concentrations of methamphetamine (METH) for 24 h and cell viability was measured using the colorimetric MTS assay. […]

[5] = set-up: method as in PMID 30597327; settings: hampered in vivo application; cited from earlier work
[6] = SH-SY5Y, 0, 0.5, 1, 2, and 3 mM, 24 h

T1 sequence (Q13547 whole entry): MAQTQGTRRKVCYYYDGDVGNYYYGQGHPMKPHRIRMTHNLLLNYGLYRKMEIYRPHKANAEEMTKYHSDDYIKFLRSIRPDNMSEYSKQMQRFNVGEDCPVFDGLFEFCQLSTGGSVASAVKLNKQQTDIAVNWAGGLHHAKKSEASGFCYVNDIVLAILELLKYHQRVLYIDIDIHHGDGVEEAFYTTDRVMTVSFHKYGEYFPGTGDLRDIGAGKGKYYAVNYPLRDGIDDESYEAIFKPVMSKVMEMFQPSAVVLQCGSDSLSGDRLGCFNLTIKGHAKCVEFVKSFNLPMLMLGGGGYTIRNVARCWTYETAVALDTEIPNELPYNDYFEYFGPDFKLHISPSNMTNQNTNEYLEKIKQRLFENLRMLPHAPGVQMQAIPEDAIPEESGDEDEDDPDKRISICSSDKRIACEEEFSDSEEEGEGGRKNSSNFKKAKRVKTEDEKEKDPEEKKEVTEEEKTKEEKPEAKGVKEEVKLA

Structure (SMILES): O=C(NO)c1cccc(CN2C(=O)CSC2=O)c1 [Compound 6a, 3-((2,4-Dioxothiazolidin-3-yl)methyl)-N-hydroxybenzamide]
- IC50 (HDAC1): > 50000 nM
- pIC50 (HDAC6 [1]): 5.71

Structure (SMILES): CCCC1SC(=O)N(Cc2ccc(C(=O)NO)cc2)C1=O (centres unmarked) [Compound 8a, 4-((2,4-Dioxo-5-propylthiazolidin-3-yl)methyl)-N-hydroxybenzamide]
- IC50 (HDAC1): > 100000 nM
- pIC50 (HDAC6 [1]): 4.10

Structure (SMILES): O=C(NO)c1ccc(CN2C(=O)CSC2=O)cc1 [Compound 6b, 4-((2,4-Dioxothiazolidin-3-yl)methyl)-N-hydroxybenzamide]
- IC50 (HDAC1): 388 nM
- pIC50 (HDAC6 [1]): 7.68
- effect on METH-induced cell morphology change (SH-SY5Y cells [2]; SH-SY5Y pretreated with 1 mM METH for 4 h, then 5, 10, and 20 µM for 24 h, dose-dependent): reversed effect on the cell morphology change from a rounded shape back to a spindle shape
- acetylation of α-tubulin after METH-promoted loss of acetylation (Ac-α-tubulin; SH-SY5Y pretreated with METH 3 mM for 4 h, then 6b (1 µM) for 24 h): significant increase
- acetylation of α-tubulin (Ac-α-tubulin; SH-SY5Y, 0, 1, 5, 10, and 20 µM, 24 h): dose-dependently induced
- concentration that caused the acetylation of α-tubulin (Ac-α-tubulin; SH-SY5Y, 24 h): 1 µM
- acetylation of Histone H3 (Ac-Histone H3; SH-SY5Y, 0, 1, 5, 10, and 20 µM): dose-dependently induced
- protein level of Histone H3 (Ac-Histone H3; SH-SY5Y, 0-20 µM): increases in proportion to the concentration
- concentration able to promote the acetylation of Histone H3 (Ac-Histone H3; SH-SY5Y): 10 µM
- Selectivity Index (HDAC6 [3]): 18.5

Structure (SMILES): CN[C@@H](C)Cc1ccccc1 [methamphetamine, Methamphetamine]
- effect on cell viability (SH-SY5Y cells [4]): no toxicity
- cell morphology (SH-SY5Y cells [2]; SH-SY5Y, 1 mM): rounded shape with a shrunken morphology
- acetylation of α-tubulin (Ac-α-tubulin; [6]): dose-dependently decreased
- expression level of α-tubulin (Ac-α-tubulin; [6]): remained unchanged

Structure (SMILES): O=C(NO)c1ccc2c(c1)C(=O)c1ccccc1C2=O [anthraquinone-based HDAC6 inhibitor]
- solubility [5]: poor solubility

Structure (SMILES): C=CCC1SC(=O)N(Cc2ccc(C(=O)NO)cc2)C1=O (centres unmarked) [Compound 8b, 4-((5-Allyl-2,4-dioxothiazolidin-3-yl)methyl)-N-hydroxybenzamide]
- IC50 (HDAC1): > 100000 nM
- pIC50 (HDAC6 [1]): 5.89

Structure (SMILES): O=C(NO)c1ccc(CN2C(=O)SC(Cc3ccccc3)C2=O)cc1 (centres unmarked) [Compound 8c, 4-((5-Benzyl-2,4-dioxothiazolidin-3-yl)methyl)-N-hydroxybenzamide]
- IC50 (HDAC1): > 100000 nM
- pIC50 (HDAC6 [1]): 6.20
